Source: the supplement of paper PMC11451515

Test system: P12-Ichikawa
Test: cell viability relative to DMSO control; higher = less cytotoxic
Details: 48 h
How it was run: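 Viability, reported as a per-plate percentage of DMSO wells with cell-free wells as background, came from CellTiter-Glo One luminescence. Reading took place after 48 h at 37°C. Before that, NOMO1 or SEM (500 cells/well) or P12-Ichikawa (1000 cells/well) leukemia cells, adapted for at least four passages in each medium, were seeded in 1536-well plates (5 μl) and pin-dosed with library compounds in DMSO, 47 μM to 0.79 nM over 11 threefold points.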

[1] = HPLM + 10% dialyzed FBS, 0.000781 µM
[2] = HPLM + 10% dialyzed FBS, 0.00234 µM
[3] = HPLM + 10% dialyzed FBS, 0.00702 µM
[4] = HPLM + 10% dialyzed FBS, 0.0211 µM
[5] = HPLM + 10% dialyzed FBS, 0.0632 µM
[6] = HPLM + 10% dialyzed FBS, 0.19 µM
[7] = HPLM + 10% dialyzed FBS, 0.569 µM
[8] = HPLM + 10% dialyzed FBS, 1.71 µM
[9] = HPLM + 10% dialyzed FBS, 5.12 µM
[10] = HPLM + 10% dialyzed FBS, 15.4 µM
[11] = HPLM + 10% dialyzed FBS, 46.1 µM
[12] = RPMI 5 mM glucose + 10% FBS, 0.000781 µM
[13] = RPMI 5 mM glucose + 10% FBS, 0.00234 µM
[14] = RPMI 5 mM glucose + 10% FBS, 0.00702 µM
[15] = RPMI 5 mM glucose + 10% FBS, 0.0211 µM
[16] = RPMI 5 mM glucose + 10% FBS, 0.0632 µM
[17] = RPMI 5 mM glucose + 10% FBS, 0.19 µM
[18] = RPMI 5 mM glucose + 10% FBS, 0.569 µM
[19] = RPMI 5 mM glucose + 10% FBS, 1.71 µM
[20] = RPMI 5 mM glucose + 10% FBS, 5.12 µM
[21] = RPMI 5 mM glucose + 10% FBS, 15.4 µM
[22] = RPMI 5 mM glucose + 10% FBS, 46.1 µM
[23] = RPMI 5 mM glucose + 10% dialyzed FBS, 0.000781 µM
[24] = RPMI 5 mM glucose + 10% dialyzed FBS, 0.00234 µM
[25] = RPMI 5 mM glucose + 10% dialyzed FBS, 0.00702 µM
[26] = RPMI 5 mM glucose + 10% dialyzed FBS, 0.0211 µM
[27] = RPMI 5 mM glucose + 10% dialyzed FBS, 0.0632 µM
[28] = RPMI 5 mM glucose + 10% dialyzed FBS, 0.19 µM
[29] = RPMI 5 mM glucose + 10% dialyzed FBS, 0.569 µM
[30] = RPMI 5 mM glucose + 10% dialyzed FBS, 1.71 µM
[31] = RPMI 5 mM glucose + 10% dialyzed FBS, 5.12 µM
[32] = RPMI 5 mM glucose + 10% dialyzed FBS, 15.4 µM
[33] = RPMI 5 mM glucose + 10% dialyzed FBS, 46.1 µM

Row | SMILES | cell viability [1] | cell viability [2] | cell viability [3] | cell viability [4] | cell viability [5] | cell viability [6] | cell viability [7] | cell viability [8] | cell viability [9] | cell viability [10] | cell viability [11] | cell viability [12] | cell viability [13] | cell viability [14] | cell viability [15] | cell viability [16] | cell viability [17] | cell viability [18] | cell viability [19] | cell viability [20] | cell viability [21] | cell viability [22] | cell viability [23] | cell viability [24] | cell viability [25] | cell viability [26] | cell viability [27] | cell viability [28] | cell viability [29] | cell viability [30] | cell viability [31] | cell viability [32] | cell viability [33]
1 | CCc1cc(C(N)=S)ccn1 | 116% | 115% | 120% | 126% | 124% | 122% | 127% | 114% | 104% | 93.7% | 80.2% | 108% | 121% | 118% | 115% | 122% | 134% | 119% | 128% | 114% | 103% | 104% | 111% | 124% | 119% | 120% | 121% | 129% | 122% | 120% | 104% | 95.9% | 86.5%
2 | C[C@@H]1CCN(C(=O)CC#N)C[C@@H]1N(C)c1ncnc2[nH]ccc12 | 97.1% | 87.1% | 82.4% | 91.3% | 86.7% | 88.5% | 86.2% | 87.7% | 77.5% | 84% | 78.6% | 81.9% | 85.6% | 83.6% | 86.3% | 95.5% | 85.2% | 92.4% | 88.2% | 87.6% | 82.1% | 81.9% | 81.9% | 80.6% | 84.7% | 81.8% | 79.4% | 79.4% | 78.7% | 76.4% | 78.2% | 72.1% | 73.8%
3 | COc1cc2ncn(-c3cc(OCc4ccccc4[S+](C)(=O)[O-])c(C#N)s3)c2cc1OC | 101% | 100% | 93.8% | 94% | 102% | 95.2% | 96.7% | 94.1% | 84.5% | 92% | 77.5% | 96.3% | 99% | 96.8% | 97.8% | 100% | 95.3% | 94.4% | 89.7% | 88.7% | 91.3% | 87.6% | 90.1% | 92.3% | 87.7% | 94.9% | 94.8% | 98% | 95.4% | 92.5% | 82.7% | 80% | 73.6%
4 | OC1=CC=C(C=C1)\C2=C\OC3=C(C(=CC(=C3)O)O)C2=O | 107% | 114% | 112% | 118% | 114% | 116% | 119% | 118% | 118% | 117% | 122% | 103% | 104% | 116% | 107% | 116% | 126% | 116% | 125% | 115% | 115% | 85.9% | 103% | 105% | 108% | 112% | 119% | 114% | 120% | 116% | 95% | 113% | 69.5%
5 | C[C@@H](NCCCc1cccc(C(F)(F)F)c1)c1cccc2ccccc12 | 120% | 123% | 117% | 125% | 109% | 118% | 114% | 118% | 113% | 100% | 115% |  |  |  |  |  |  |  |  |  |  |  |  |  |  |  |  |  |  |  |  |  | 
6 | CC(NC(C)(C)C)C(=O)c1cccc(Cl)c1 (stereo not given) | 114% | 113% | 117% | 118% | 117% | 111% | 120% | 124% | 122% | 115% | 115% |  |  |  |  |  |  |  |  |  |  |  | 114% | 127% | 119% | 123% | 123% | 128% | 125% | 124% | 121% | 118% | 108%
7 | Cc1nn(C)c(COc2ccc(N3CCN([S+](=O)([O-])N(C)C)CC3)cc2)c1-c1cccc2c(CCCOc3cccc4ccccc34)c(C(=O)O)n(CCN3CCOCC3)c12 | 92.3% | 99.2% | 97.4% | 102% | 103% | 106% | 107% | 110% | 29.9% | 29.2% | 28% | 89.3% | 107% | 101% | 97.7% | 105% | 107% | 109% | 113% | 104% | 109% | 46.6% | 87.5% | 107% | 104% | 106% | 112% | 115% | 120% | 114% | 96.1% | 97.6% | 36.7%
8 | O=C([O-])C[C@H](O)C[C@H](O)/C=C/c1c(C2CC2)nc2ccccc2c1-c1ccc(F)cc1 | 107% | 111% | 115% | 110% | 117% | 114% | 110% | 103% | 69.3% | 49.1% | 26.2% | 110% | 117% | 116% | 113% | 124% | 116% | 105% | 87.9% | 52.3% | 19.5% | 14.7% | 113% | 114% | 113% | 107% | 119% | 116% | 115% | 93.6% | 58.2% | 36.9% | 19.3%
9 | CCN1\C=C(\C(O)=O)C(=O)C2=C1N=C(N3CCNCC3)C(=C2)F | 75.4% | 89.2% | 85.8% | 94.9% | 91.8% | 93.7% | 94.1% | 91.9% | 91.4% | 92.2% | 84.1% | 72.1% | 82.1% | 76% | 86.3% | 80.7% | 81.6% | 79.4% | 78.4% | 85.7% | 83.6% | 81% | 74.1% | 82.6% | 77.7% | 90.3% | 84.1% | 76.9% | 88.7% | 83.3% | 77.2% | 83.4% | 95.1%
10 | CC(C)=CCC/C(C)=C/CC/C(C)=C/CC/C(C)=C/CC/C(C)=C/CC/C(C)=C/CC/C(C)=C/CC/C(C)=C/CC/C(C)=C/CO | 107% | 109% | 108% | 112% | 116% | 109% | 109% | 108% | 104% | 93.4% | 106% | 105% | 103% | 115% | 103% | 108% | 98.7% | 105% | 97.1% | 91.3% | 87.1% | 96.1% | 98.3% | 100% | 92.7% | 99.6% | 103% | 102% | 106% | 97.3% | 87.9% | 95.9% | 90.3%
11 | OC[C@H]1O[C@H](C[C@@H]1O)N2\C=C(F)/C(=O)NC2=O | 123% | 109% | 110% | 92.4% | 78.1% | 47.9% | 33.3% | 28.5% | 20.6% | 22.7% | 11% | 115% | 104% | 101% | 106% | 92.2% | 55.2% | 51.6% | 38.1% | 25.6% | 33.6% | 30.1% | 124% | 109% | 116% | 109% | 76.9% | 45.7% | 34.3% | 30.3% | 21.8% | 27.6% | 19.4%
12 | Cc1ccc(C(=O)Nc2cccc(C(F)(F)F)c2)cc1-c1ccc2nc(NCCN3CCOCC3)ncc2c1 | 110% | 111% | 112% | 111% | 116% | 109% | 107% | 92.6% | 85% | 64.2% | 42.6% | 105% | 106% | 119% | 115% | 113% | 111% | 113% | 109% | 62.2% | 50.3% | 31.7% | 110% | 107% | 107% | 105% | 116% | 107% | 103% | 92.5% | 73.7% | 49.3% | 30.5%
13 | CC1(CN2CCC(n3c(=O)[nH]c4ccccc43)CC2)OCc2ccccc2-n2cccc21 (stereo not given) | 99.7% | 97.6% | 105% | 98.7% | 102% | 104% | 94.4% | 99.9% | 99% | 99.6% | 92.8% | 96% | 99.9% | 93.1% | 94.8% | 98.3% | 98.5% | 106% | 109% | 102% | 96.8% | 87.9% | 94% | 92.5% | 96.4% | 97.2% | 97.7% | 99.2% | 94% | 93.8% | 98.7% | 94.3% | 98.5%
14 | CCOC(=O)N1c2ccc(C(F)(F)F)cc2[C@@H](N(Cc2cc(C(F)(F)F)cc(C(F)(F)F)c2)C(=O)OC)C[C@H]1CC | 127% | 120% | 116% | 119% | 119% | 114% | 121% | 110% | 116% | 110% | 106% | 131% | 123% | 122% | 132% | 133% | 116% | 127% | 121% | 124% | 103% | 111% | 115% | 128% | 117% | 118% | 120% | 127% | 121% | 114% | 123% | 112% | 104%
15 | N#Cc1ccc(Oc2ccc3c(c2)COB3O)cc1 | 112% | 119% | 123% | 90.6% | 129% | 125% | 125% | 102% | 81.5% | 80.6% | 33.9% | 117% | 120% | 127% | 81.7% | 135% | 125% | 139% | 138% | 123% | 124% | 53.1% | 119% | 117% | 113% | 83.9% | 132% | 120% | 135% | 139% | 130% | 124% | 38.6%
16 | C[C@@H]1CN(Cc2ccc(F)cc2)[C@@H](C)CN1C(=O)c1cc2c(C(=O)C(=O)N(C)C)cn(C)c2cc1Cl | 111% | 118% | 118% | 128% | 115% | 123% | 125% | 125% | 125% | 125% | 108% | 110% | 114% | 111% | 126% | 122% | 124% | 132% | 113% | 124% | 117% | 107% | 119% | 132% | 117% | 124% | 122% | 130% | 124% | 127% | 123% | 118% | 117%
